Measurements as given in patent publication US20250136617A1 (The Regents of the University of Colorado, A Body Corporate, priority 2022, published 2025).

Target: CXCR4 (Homo sapiens, UniProt P61073)
Experiment: primary 1536 w β-arrestin recruitment assay (FRET, β-lactamase reporter) in U2OS cells overexpressing CXCR4
Format: cell-based
Parameters: host or cells: U2OS
Settings: for Emax: U2OS, read-out: CXCR4 b-arrestin Emax (%); for activity in primary β-arrestin assay: SAR discussion
Method: In an effort to identify CXCR4 activators from the NIH Molecular Library Small Molecule Repository (MLSMR), a primary screening assay was developed to measure β-arrestin recruitment to the activated G-protein coupled receptor by Florescence Resonance Energy Transfer (FRET) in U2OS cells overexpressing the CXCR4 receptor engineered with a β-lactamase (bla) reporter system (Invitrogen cat #K1779). CXCR4-bla cells plated in 1536 w were stimulated in the presence of 10 uM compound concentration. […] Using this approach, 370,620 compounds from the NIH MLSMR were successfully screened and 303 hits were identified (hit rate=0.08%; Z′=0.83). […] These compounds were graded according to activity and structure resulting in 86 compounds that met criteria as potential CXCR4 agonists for further characterization.
Chemical stability, synthetic tractability, solubility and complete dose response and potency criteria led to the prioritization of the 5-aryl-2-cyclopropyl oxazole scaffold, represented by primary hit Compound 2 (Table 1). Early structure-activity relationship was established around the 5-aryl-2-cyclopropyl oxazole core with commercially available analogs with diverse substituents in the sulfonanilide ring of the scaffold. […] Keeping the 2-OMe substituent constant a small set of electron withdrawing and electron rich substituents at the 5-position of the anilide ring were screened (entries 16-19).

CXCR4, sequence (P61073 whole entry): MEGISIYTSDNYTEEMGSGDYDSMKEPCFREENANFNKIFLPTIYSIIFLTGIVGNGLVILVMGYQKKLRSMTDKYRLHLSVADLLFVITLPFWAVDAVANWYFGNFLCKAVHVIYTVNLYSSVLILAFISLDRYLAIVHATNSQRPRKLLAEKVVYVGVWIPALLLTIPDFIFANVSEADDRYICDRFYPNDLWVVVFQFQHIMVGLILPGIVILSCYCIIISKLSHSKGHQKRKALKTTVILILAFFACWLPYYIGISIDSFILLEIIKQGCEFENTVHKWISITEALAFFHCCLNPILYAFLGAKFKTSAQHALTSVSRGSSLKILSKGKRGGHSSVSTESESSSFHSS

Compound	Emax	EC50 (1536 w screening platform)	activity in primary β-arrestin assay
CCc1ccccc1NS(=O)(=O)c1ccc(-c2cnc(C3CC3)o2)cc1 [compound 3]	38%		
CCOc1ccccc1NS(=O)(=O)c1ccc(-c2cnc(C3CC3)o2)cc1 [compound 5]	46%	1000 nM	
CCOc1ccc(NS(=O)(=O)c2ccc(-c3cnc(C4CC4)o3)cc2)cc1 [compound 9]	38%		
Cc1cccc(NS(=O)(=O)c2ccc(-c3cnc(C4CC4)o3)cc2)c1C [compound 10]	40%		
Cc1ccc(NS(=O)(=O)c2ccc(-c3cnc(C4CC4)o3)cc2)c(C)c1 [compound 12]	38%		
Cc1ccc(C)c(NS(=O)(=O)c2ccc(-c3cnc(C4CC4)o3)cc2)c1 [compound 13]	42%		most active among the dimethyl analogs

Continued, values first:

Emax	EC50 (1536 w screening platform)	activity in primary β-arrestin assay	Compound
45%		most active among the dimethyl analogs	Cc1cccc(C)c1NS(=O)(=O)c1ccc(-c2cnc(C3CC3)o2)cc1 [compound 14]
39%			Cc1cc(C)cc(NS(=O)(=O)c2ccc(-c3cnc(C4CC4)o3)cc2)c1 [compound 15]
42%			COc1ccc(F)cc1NS(=O)(=O)c1ccc(-c2cnc(C3CC3)o2)cc1 [compound 17]
		inactive or had marginal activity	COc1ccc(NS(=O)(=O)c2ccc(-c3cnc(C4CC4)o3)cc2)cc1OC [compound 20]
